Our source for the Ki values is patent US6140353A, “N-(4-carb-amimidophenyl)glycineamide derivatives” (Hoffmann-La Roche Inc., priority 1997, dated 2000).

The structures appear in SMILES notation. Structures can show the parent of a compound that is named as a salt.

The experiment addresses T1, factor VIIa/tissue factor complex (Homo sapiens, UniProt P08709).
T1 construct: 9 nM of soluble factor VIIa
Nature of the experiment: Inhibition of the amidolytic activity of the factor VIIa/tissue factor complex (chromogenic peptide substrate). Type of experiment: biochemical. The conditions noted are these: chromogenic substrate Chromozym-tPA (3.5 mM), pH 7.5, room temperature, 15 minutes incubation, 10 minutes kinetic reading. The method, then: The measurements were carried out on microtiter plates at room temperature. To this end, per well of the plate, 100 μl of a solution of 26 nM of tissue factor, 9 nM of soluble factor VIIa and 8 mM of calcium chloride were added to 25 μl of a solution of the inhibitor in a buffer [pH 7.5, 100 mM, comprising 0.14 M NaCl, 0.1 M N(2-hydroxyethyl)piperazine-N'-(2-ethanesulphonic acid) (HEPES), 0.5 mg/l of fatty-acid-free BSA (bovine serum albumin) and 0.05% NaN3 ]. After an incubation time of 15 minutes, the reaction was started by addition of 50 μl of chromogenic substrate Chromozym-tPA (3.5 mM, MeSO2 -D-Phe-Gly-Arg-paranitroanilide), and the hydrolysis of the substrate was followed spectrophotometrically on a kinetic microtiter plate reader over 10 minutes. Using the plot of the inhibition curves, the Ki values were determined according to the method described in Biochem. J., 55:170-171 (1953).

T1 sequence (P08709 213-466 limits assumed): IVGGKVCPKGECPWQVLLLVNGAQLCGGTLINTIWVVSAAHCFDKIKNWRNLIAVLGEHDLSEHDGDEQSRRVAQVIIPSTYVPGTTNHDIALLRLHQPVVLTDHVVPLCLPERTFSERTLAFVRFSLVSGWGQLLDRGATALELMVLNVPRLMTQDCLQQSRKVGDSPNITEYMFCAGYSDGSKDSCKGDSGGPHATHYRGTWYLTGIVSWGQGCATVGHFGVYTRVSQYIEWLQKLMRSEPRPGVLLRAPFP
T1 sequence (P08709 61-212 partner limits assumed): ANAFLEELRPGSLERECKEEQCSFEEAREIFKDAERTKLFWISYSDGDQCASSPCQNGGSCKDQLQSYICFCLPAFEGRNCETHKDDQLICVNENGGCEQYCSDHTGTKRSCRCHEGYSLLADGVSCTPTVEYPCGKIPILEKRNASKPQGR
T1 sequence (P13726 33-295 partner): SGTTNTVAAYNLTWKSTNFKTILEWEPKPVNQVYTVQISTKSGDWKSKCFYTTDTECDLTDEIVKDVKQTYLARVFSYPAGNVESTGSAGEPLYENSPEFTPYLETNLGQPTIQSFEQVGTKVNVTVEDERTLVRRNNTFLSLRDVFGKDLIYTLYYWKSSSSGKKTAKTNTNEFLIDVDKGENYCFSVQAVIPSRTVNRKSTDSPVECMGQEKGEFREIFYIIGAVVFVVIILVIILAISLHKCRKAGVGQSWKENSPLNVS

A word on the Ki: it is the dissociation constant of the complex between target and ligand, obtained from inhibition or displacement. Read a high Ki as weaker binding. With `COc1cc(C(Nc2ccc(C(=N)N)cc2)C(=O)NCc2ccccc2)ccc1OCc1ccccc1` (racemic) [Example 1, (R,S)-N-benzyl-2-(4-benzyloxy-3-methoxyphenyl)-2-(4-carbamimidoylphenylamino)acetamide hydrochloride], affinity was put at a Ki of 50 nM.

`COc1cc(C(Nc2ccc(C(=N)N)cc2)C(=O)Nc2ccccc2)ccc1OCc1ccccc1` (racemic) [Example 7s, (R,S)-2-(4-benzyloxy-3-methoxyphenyl)-2-(4-carbamimidoylphenylamino)-N-phenylacetamide acetate]: the inhibition constant Ki was 170 nM. Under `CCOc1ccc(C(Nc2ccc(C(=N)N)cc2)C(=O)NCc2ccccc2)cc1OCC` (racemic) [Example 5d, (R,S)-N-benzyl-2-(4-carbamimidoylphenylamino)-2-(3,4-diethoxyphenyl)acetamide hydrochloride] stands 110 nM; under `COc1ccc(C(Nc2ccc(C(=N)N)cc2)C(=O)NC(c2ccccc2)c2ccccc2)cc1OC` (racemic) [Example 5c, (R,S)-N-benzhydryl-2-(4-carbamimidoylphenylamino)-2-(3,4-dimethoxyphenyl)acetamide hydrochloride], 160 nM. Under `COc1ccc(C(Nc2ccc(C(=N)N)cc2)C(=O)NCc2ccccc2)cc1OC` (racemic) [Example 2a, (R,S)-N-benzyl-2-(4-carbamimidoylphenylamino)-2-(3,4-dimethoxyphenyl)acetamide hydrochloride] stands 280 nM; under `COc1cc(C(Nc2ccc(C(=N)N)cc2)C(=O)NCc2ccccc2)cc(OC)c1OC` (racemic) [Example 5a, (R,S)-N-benzyl-2-(4-carbamimidoylphenylamino)-2-(3,4,5-trimethoxyphenyl)acetamide hydrochloride], 280 nM; under `COc1cc(OC)cc(C(Nc2ccc(C(=N)N)cc2)C(=O)NCc2ccccc2)c1` (racemic) [Example 5b, (R,S)-N-benzyl-2-(4-carbamimidoylphenylamino)-2-(3,5-dimethoxyphenyl)acetamide hydrochloride], 190 nM. For `COc1cc(C(Nc2ccc(C(=N)N)cc2)C(=O)NCc2ccccc2)ccc1OCc1ccc2cnccc2c1` (racemic) [Example 7n], the Ki came to 170 nM.

`COc1cccc(COc2ccc(C(Nc3ccc(C(=N)N)cc3)C(=O)NCc3ccccc3)cc2OC)c1` (racemic) [Example 6, (R,S)-N-benzyl-2-(4-carbamimidoylphenylamino)-2-[3-methoxy-4-(3-methoxybenzyloxy)phenyl]) acetamide acetate] came in with a Ki of 220 nM. Under `COc1cc(C(Nc2ccc(C(=N)N)cc2)C(=O)NCc2ccccc2)ccc1OCc1ccc2[nH]ccc2c1` (racemic) [Example 7e, (R,S)-N-benzyl-2-(4-carbamimidoylphenylamino)-2-[4-(1H-indol-5-ylmethoxy)-3-methoxyphenyl]acetamide acetate] stands 110 nM; under `CCOc1cc(C(Nc2ccc(C(=N)N)cc2)C(=O)NCc2ccccc2)ccc1OCc1ccccc1` (racemic) [Example 5g, (R,S)-N-benzyl-2-(4-benzyloxy-3-ethoxyphenyl)-2-(4-carbamimidoylphenylamino)acetamide hydrochloride], 44 nM. Under `COc1cc(C(Nc2ccc(C(=N)N)cc2)C(=O)NCc2ccccc2)ccc1OCCc1ccccc1` (racemic) [Example 7h, (R,S)-N-benzyl-2-(4-carbamimidoylphenylamino)-2-[3-methoxy-4-phenethyloxyphenyl)acetamide acetate] stands 210 nM; under `COc1cc(C(Nc2ccc(C(=N)N)cc2)C(=O)NCc2ccccc2)ccc1OCc1ccncc1` (stereo not shown) [Example 7a, N-benzyl-2-(4-carbamimidoylphenylamino)-2-[3-methoxy-4-(pyridin-4-ylmethoxy)phenyl]acetamide acetate], 190 nM; under `COc1cc(C(Nc2ccc(C(=N)N)cc2)C(=O)NCc2ccccc2)c(NS(=O)(=O)c2ccccc2)cc1OCc1ccccc1` (stereo not shown) [Example 8, 2-(2-phenylsulphonylamino-4-benzyloxy-5-methoxyphenyl)-N-benzyl-2-(4-carbamimidoylphenylamino)acetamide acetate], 150 nM.

For the compound `COc1cc(C(Nc2ccc(C(=N)N)cc2)C(=O)NCc2ccccc2)ccc1OCc1ccc2c(c1)NCCC2` (racemic) [Example 7f, (R,S)-N-benzyl-2-(4-carbamimidoylphenylamino)-2-[3-methoxy-4-(1,2,3,4-tetrahydroquinolin-7-ylmethoxy)phenyl]acetamide acetate], the Ki stood at 260 nM. Under `COc1cc(C(Nc2ccc(C(=N)N)cc2)C(=O)NCc2ccccc2)c(NS(=O)(=O)c2ccccc2)cc1O` (stereo not shown) [Example 10, 2-(2-phenylsulphonylamino-4-hydroxy-5-methoxyphenyl)-N-benzyl-2-(4-carbamimidoylphenylamino)acetamide acetate] stands 112 nM.
